Values after ≈ are worked out from the molar mass of the structure shown. Like-named read-outs stand apart in the source and are kept apart here.
Legend:
Assay type in all cases: cell-based
[1] = tested on: S. aureaus FDA-209P; assay: MIC against S. aureaus FDA-209P by the plate diluted method; details: Staphylococcus aureus, FDA209P
Protocol: (§1) In order to investigate the in vitro activity of the test compounds against various bacteria, the minimal inhibitory concentration (MIC) values were determined by the plate diluted method (See CHEMOTHERAPY, 22, 1126-1128, 1974.)
(§2) Each strain was adjusted to 1×10^6 cells/ml (O.D. 600 mμ, 0.07 to 0.16).

[2] = tested on: E. coli No. 29; assay: MIC against E. coli No. 29 by the plate diluted method; details: Escherichia coli, 1×10^6 cells/ml
Protocol: as §1, §2

[3] = tested on: K. pneumoniae NCTC-9632; assay: MIC against K. pneumoniae NCTC-9632 by the plate diluted method; details: Klebsiella pneumoniae, NCTC9632; K. pneumoniae NCTC-9632; 1×10^6 cells/ml; read-out: MIC
Protocol: as §1, §2

[4] = tested on: M. moganii IIDkono; assay: MIC against M. moganii IIDkono by the plate diluted method; details: M. moganii IIDkono; 1×10^6 cells/ml; read-out: MIC
Protocol: as §1, §2

[5] = tested on: S. marcescens IFO 12648; assay: MIC against S. marcescens IFO 12648 by the plate diluted method; details: Serratia marcescens, IFO12648; S. marcescens IFO 12648; 1×10^6 cells/ml; read-out: MIC
Protocol: as §1, §2

[6] = tested on: A. calcoaceticus Ac-54; assay: MIC against A. calcoaceticus Ac-54 by the plate diluted method; details: Acinetobacter calcoaceticus, AC54; A. calcoaceticus Ac-54; 1×10^6 cells/ml; read-out: MIC
Protocol: as §1, §2

[7] = tested on: P. aeruginosa ATCC-10145; assay: MIC against P. aeruginosa ATCC-10145 by the plate diluted method; details: Pseudomonas aeruginosa, ATCC10145; P. aeruginosa ATCC-10145; 1×10^6 cells/ml; read-out: MIC
Protocol: as §1, §2

[8] = tested on: P. aeruginosa E-2; assay: MIC against P. aeruginosa E-2 by the plate diluted method; details: Pseudomonas aeruginosa, E2; P. aeruginosa E-2; 1×10^6 cells/ml; read-out: MIC
Protocol: as §1, §2

[9] = S. aureaus FDA-209P, 1×10^6 cells/ml, read-out: MIC

Structure (SMILES) | MIC [1, 9] | MIC [2] | MIC [3] | MIC [4] | MIC [5] | MIC [6] | MIC [7] | MIC [8] | MIC [1]
CC(C)(O/N=C(\C(=O)N[C@@H]1C(=O)N2C(C(=O)[O-])=C(CSc3cc[n+](CC(=O)c4ccc(O)c(O)c4)cc3)SC[C@H]12)c1csc(N)n1)C(=O)O [No. 3, (6S,7S)-7-[(Z)-2-(2-aminothiazol-4-yl)-2-(1-carboxy-1-methylethoxy)iminoacetamide]-3-{[1-[2-(3,4-dihydroxyphenyl)-2-oxo]ethyl]-4-pyridinio}thiomethylisocephem-4-carboxylate] | 0.78 µg/mL (≈ 1.07 µM) | ≤ 0.006 µg/mL | ≤ 0.006 µg/mL | 0.024 µg/mL (≈ 0.0329 µM) | 0.024 µg/mL (≈ 0.0329 µM) | 0.1 µg/mL (≈ 0.137 µM) | 0.05 µg/mL (≈ 0.0686 µM) | 0.05 µg/mL (≈ 0.0686 µM) | 
CC(C)(O/N=C(\C(=O)N[C@@H]1C(=O)N2C(C(=O)[O-])=C(CSc3cc[n+](CC(=O)c4ccc(O)c(O)c4)cc3)CS[C@H]12)c1csc(N)n1)C(=O)O [No. 16, (6R,7R)-7-[(Z)-2-(2-aminothiazol-4-yl)-2-(1-carboxy-1-methylethoxy)iminoacetamide]-3-[[1-[2-(3,4-dihydroxyphenyl)-2-oxo]ethyl]-4-pyridinio]thiomethyl-3-cephem-4-carboxylate] |  | 0.012 µg/mL (≈ 0.0165 µM) | 0.012 µg/mL (≈ 0.0165 µM) | 0.05 µg/mL (≈ 0.0686 µM) | 0.024 µg/mL (≈ 0.0329 µM) | 0.05 µg/mL (≈ 0.0686 µM) | 0.1 µg/mL (≈ 0.137 µM) | 0.1 µg/mL (≈ 0.137 µM) | 1.56 µg/mL (≈ 2.14 µM)
Nc1nc(/C(=N/OCC(=O)O)C(=O)N[C@@H]2C(=O)N3C(C(=O)[O-])=C(CSc4cc[n+](CC(=O)c5ccc(O)c(O)c5)cc4)OC[C@H]23)cs1 [No. 8, (6S,7S)-7-[(Z)-2-(2-aminothiazol-4-yl)-2-(1-carboxymethoxy)iminoacetamide]-3 {[1-[2-(3,4-dihydroxyphenyl)-2-oxo]ethyl]-4-pyridinio}thiomethyl-Δ^3 -O-2-isocephem-4-carboxylate] |  | ≤ 0.006 µg/mL | ≤ 0.006 µg/mL | 0.024 µg/mL (≈ 0.0351 µM) | 0.024 µg/mL (≈ 0.0351 µM) | 0.05 µg/mL (≈ 0.073 µM) | 0.05 µg/mL (≈ 0.073 µM) | 0.1 µg/mL (≈ 0.146 µM) | 1.56 µg/mL (≈ 2.28 µM)
CC(C)(O/N=C(\C(=O)N[C@@H]1C(=O)N2C(C(=O)[O-])=C(CSc3cc[n+](Cc4cc(=O)c(O)c[nH]4)cc3)SC[C@H]12)c1csc(N)n1)C(=O)O [No. 7, (6S,7S)-7-[(Z)-2-(2-aminothiazol-4-yl)-2-(1-carboxy-1-methylethoxy)imino]acetamide-3-[(5-hydroxy-4-pyridone-2-yl)methyl-4-pyridinio]thiomethylisocephem-4-carboxylate] |  | 0.012 µg/mL (≈ 0.0171 µM) | 0.012 µg/mL (≈ 0.0171 µM) | 0.024 µg/mL (≈ 0.0342 µM) | 0.012 µg/mL (≈ 0.0171 µM) | 0.2 µg/mL (≈ 0.285 µM) | 0.1 µg/mL (≈ 0.142 µM) | 0.1 µg/mL (≈ 0.142 µM) | 3.13 µg/mL (≈ 4.46 µM)
Cc1nc(SCC2=C(C(=O)O)N3C(=O)[C@@H](NC(=O)/C(=N\OCc4cc(=O)c(O)cn4O)c4csc(N)n4)[C@H]3CS2)sc1CC(=O)O [No. 13, (6S,7S)-7-[(Z)-2-(2-aminothiazol-4-yl)-2-(1,5-dihydroxy-4-pyridone-2-ylmethoxyimino)acetamide]-3-[(5-carboxymethyl-4-methyl-thiazol-2-yl)thiomethyl]isocephem-4-carboxylic acid] | 100 µg/mL (≈ 141 µM) | 0.012 µg/mL (≈ 0.0169 µM) | ≤ 0.006 µg/mL | 0.024 µg/mL (≈ 0.0338 µM) | 0.012 µg/mL (≈ 0.0169 µM) | 0.012 µg/mL (≈ 0.0169 µM) | 0.05 µg/mL (≈ 0.0704 µM) | 0.05 µg/mL (≈ 0.0704 µM) | 
Nc1nc(/C(=N/OCc2cc(=O)c(O)cn2O)C(=O)N[C@@H]2C(=O)N3C(C(=O)O)=C(CSc4nnc(N)s4)SC[C@H]23)cs1 [No. 10, (6S,7S)-7-[(Z)-2-(2-aminothiazol-4-yl)-2-(1,5-dihydroxy-4-pyridone-2-ylmethoxyimino)acetamide]-3-(2-amino-1,3,4-thiadiazol-5-ylthiomethyl)isocephem-4-carboxylic acid] | 50 µg/mL (≈ 76.5 µM) | 0.05 µg/mL (≈ 0.0765 µM) | 0.05 µg/mL (≈ 0.0765 µM) | 0.05 µg/mL (≈ 0.0765 µM) | 0.05 µg/mL (≈ 0.0765 µM) | 0.78 µg/mL (≈ 1.19 µM) | 0.1 µg/mL (≈ 0.153 µM) | 0.2 µg/mL (≈ 0.306 µM) | 
Cc1nnc(SCC2=C(C(=O)O)N3C(=O)[C@@H](NC(=O)/C(=N\OCc4ccc(O)c(O)c4)c4csc(N)n4)[C@H]3CS2)s1 [No. 5, (6S,7S)-7-[(Z)-2-(2-aminothiazol-4-yl)-2-(3,4-dihydroxyphenylmethoxyimino)]acetamide-3-(2-methyl-1,3,4-thiadiazol-5-ylthiomethyl)isocephem-4-carboxylic acid] |  | 0.012 µg/mL (≈ 0.0189 µM) | 0.012 µg/mL (≈ 0.0189 µM) | 0.05 µg/mL (≈ 0.0786 µM) | 0.05 µg/mL (≈ 0.0786 µM) | 0.39 µg/mL (≈ 0.613 µM) | 0.39 µg/mL (≈ 0.613 µM) | 0.39 µg/mL (≈ 0.613 µM) | 1.56 µg/mL (≈ 2.45 µM)
